Test results from article PMC7395068, “The evolution of strategies to minimise the risk of human drug-induced liver injury (DILI) in drug discovery and development” (Archives of Toxicology, 2020).
Like-named read-outs stand apart in the source and are kept apart here.

What was measured:
[1] = tested on: HepG2 C3A spheroid, BSEP, Glu/Gal in HepG2 cells, bioactivation; conditions: cited from earlier work; for Bayesian Machine Learning: ref Williams 2019
[2] = tested on: HepaRG spheroids
[3] = cited from earlier work; for Assigned DILI category: Chen et al. 2016 or literature alignment, ref Chen et al. 2016
[4] = tested on: hLiMTs
[5] = tested on: hLiMTs; conditions: cited from earlier work; for hLiMTs ATP <100uM: In vitro Assay, ref Proctor 2017; for hLiMTs/100uM, Proctor (2017): ATP, IC50 threshold 100 µM, ref Proctor et al. 2017
[6] = cited from earlier work
[7] = tested on: PHH; conditions: cited from earlier work; for PHH ATP <100uM: In vitro Assay, ref Proctor 2017; for PHH/100uM, Proctor (2017): 2D PHH, ATP, IC50 threshold 100 µM, ref Proctor et al. 2017
[8] = Plasma free fraction (fu) and unbound Cmax (Cmax,u); assay type: in vitro ADME, human; conditions: unbound plasma Cmax
Experimental: The prediction of DILI severity was evaluated further using the 3D combined HCI assays using plasma-free fraction. The majority of fu values were obtained from literature, when unavailable in-house prediction was utilised. Unbound plasma Cmax concentrations (Cmax,u) were derived by multiplying total plasma Cmax with the corresponding free fraction (fu) for each compound.

[9] = read-out: Human plasma Cmax; total plasma Cmax.tot, median of 9 literature references; cited from earlier work
[10] = plasma free fraction; cited from earlier work
[11] = tested on: hLiMTs; test: Combined HCI (HCS) and cellular ATP 3D assay in hLiMTs; conditions: hLiMTs; for hLiMTs <25x Avg Cmax ATP / hLiMTs <25x Avg Cmax HCS / hLiMTs <25x Avg Cmax All: cut-off <25x Avg Cmax; for hLiMTs <25x Avg Cmax All: all endpoints (ATP and HCS); for hLiMTs Cmax max All: Cmax max used; for hLiMTs Cmax min All: Cmax min used; for hLiMTs <10 uM All: cut-off <10 uM
[12] = tested on: HepaRG spheroids; test: Combined HCI (HCS) and cellular ATP 3D assay in HepaRG spheroids; conditions: HepaRG; for HepaRG <25x Avg Cmax ATP / HepaRG <25x Avg Cmax HCS / HepaRG <25x Avg Cmax All: cut-off <25x Avg Cmax; for HepaRG <25x Avg Cmax All: all endpoints (ATP and HCS); for HepaRG Cmax max All: Cmax max used; for HepaRG Cmax min All: Cmax min used; for HepaRG <10 uM All: cut-off <10 uM
[13] = tested on: THLE-Null and THLE-3A4 cells; conditions: In vitro Assay; ref Gustafsson 2014; cited from earlier work
[14] = tested on: human hepatocytes; conditions: cited from earlier work
[15] = tested on: rBsep; conditions: In vitro Assay; ref Dawson 2012; cited from earlier work
[16] = tested on: HepG2 cells; conditions: cited from earlier work
[17] = tested on: PHH spheroids; conditions: cited from earlier work
[18] = tested on: HepG2 cells; conditions: cited from earlier work; remark: listed apart in the source
[19] = ATP endpoint, cut-off <100x Avg Cmaxu
[20] = HCS endpoints, cut-off <100x Avg Cmaxu
[21] = all endpoints, cut-off <100x Avg Cmaxu
[22] = In vitro Assay, ref Persson 2013

CC(C)[N+](C)(CCOC(=O)C1c2ccccc2Oc2ccccc21)C(C)C [propantheline]
No: DILI severity category ([6]; in vivo)
-ve: HepaRG <10 uM All [2] | HepaRG Cmax max All ([2]; human) | HepaRG Cmax min All ([2]; human) | hLiMTs <10 uM All [4] | hLiMTs Cmax max All ([4]; human) | hLiMTs Cmax min All ([4]; human)
-VE: Bayesian Machine Learning [1] | In vivo DILI ([3]; ref Proctor 2017) | In vivo DILI ([3]; ref Williams 2019) | hLiMTs ATP <100uM [5] | DILI +VE (5-8), DILI -VE (-4) ([6]; ref Chen 2016) | PHH ATP <100uM [7]
vNo-DILI-Concern: DILI severity category ([6]; ref Chen 2016)

CN(C)C(=O)Oc1cccc([N+](C)(C)C)c1 [neostigmine]
-ve: hLiMTs <25x Avg Cmax ATP ([11]; ATP endpoint) | hLiMTs <100x Avg Cmaxu ATP [11, 19] | hLiMTs <25x Avg Cmax HCS ([11]; HCS endpoints) | hLiMTs <100x Avg Cmaxu HCS [11, 20] | hLiMTs <25x Avg Cmax All [11] | hLiMTs Cmax max All ([11]; all endpoints) | hLiMTs Cmax min All ([11]; all endpoints) | hLiMTs <10 uM All ([11]; all endpoints) | hLiMTs <100x Avg Cmaxu All [11, 21] | HepaRG <25x Avg Cmax ATP ([12]; ATP endpoint) | HepaRG <100x Avg Cmaxu ATP [12, 19] | HepaRG <25x Avg Cmax HCS ([12]; HCS endpoints) | HepaRG <100x Avg Cmaxu HCS [12, 20] | HepaRG <25x Avg Cmax All [12] | HepaRG Cmax max All ([12]; all endpoints) | HepaRG Cmax min All ([12]; all endpoints) | HepaRG <10 uM All ([12]; all endpoints) | HepaRG <100x Avg Cmaxu All [12, 21]
45 nM: Cmax [9]
-VE: Bayesian Machine Learning DILI prediction, Williams (2019) ([1]; Bayesian modeling, ref Williams et al. 2019) | Bayesian Machine Learning [1] | DILI prediction HepaRG spheroids (HCS-MEC) [2] | In vivo DILI ([3]; […]) | In vivo DILI ([3]; ref Proctor 2017) | In vivo DILI ([3]; ref Williams 2019) | DILI prediction hLiMTs (HCS-MEC) [4] | hLiMTs ATP <100uM [5] | hLiMTs/100xCmax, Proctor (2017) [5] | hLiMTs/100uM, Proctor (2017) [5] | PHH/100uM, Proctor (2017) [7] | PHH ATP <100uM [7] | PHH/100xCmax, Proctor (2017) [7]
0.800: fu [10]
1: Assigned DILI category [3]
36 nM: Human plasma Cmax,u [8]

CCOC(=O)c1ncn2c1CN(C)C(=O)c1cc(F)ccc1-2 [flumazenil, reference compound]
0.580: fu [10]
-VE: THLE-Null [13] | DILI prediction HepaRG spheroids (HCS-MEC) [2] | In vivo DILI ([3]; ref Dawson 2012) | In vivo DILI ([3]; ref Gustafsson 2014) | In vivo DILI ([3]; ref O'Brien 2006) | In vivo DILI ([3]; ref Persson 2013) | In vivo DILI ([3]; ref Proctor 2017) | In vivo DILI ([3]; ref Vorrink 2018) | In vivo DILI ([3]; ref Williams 2019) | In vivo DILI ([3]; ref Xu 2008) | Structural based (HCI) ([14]; In vitro Assay, ref Xu 2008) | DILI in vitro assay prediction, Xu (2008) ([14]; Structural based (HCI), human hepatocytes, ref Xu et al. 2008) | DILI prediction hLiMTs (HCS-MEC) [4] | hLiMTs ATP <100uM [5] | hLiMTs/100uM, Proctor (2017) [5] | Inhibition of rBsep cutoff<1& cmax u>.2 [15] | Inhibition of rBsep cutoff<3 [15] | DILI +VE (5-8), DILI -VE (-4) ([6]; ref Chen 2016) | Structural based (HCI) ([16]; In vitro Assay, ref O'Brien 2006) | DILI in vitro assay prediction, O'Brien (2006) ([16]; Structural based (HCI), HepG2, ref O'Brien et al. 2006) | hLiMTs ATP <20 x Cmax ([17]; In vitro Assay, ref Vorrink 2018) | DILI in vitro assay prediction, Vorrink (2018) ([17]; PHH spheroids, ATP, 14 days, IC20 < 20 × Cmax.tot, ref Vorrink et al. 2018) | Cluser analysis [18, 22] | Structural based (HCI) [18, 22] | DILI in vitro assay prediction, Persson (2013) ([18]; Structural based (HCI), HepG2, ref Persson et al. 2013) | PHH/100uM, Proctor (2017) [7] | PHH ATP <100uM [7]
650 nM: Human plasma Cmax,u [8]
vNo-DILI-Concern: DILI severity category ([6]; ref Chen 2016)
1120 nM: Cmax [9]
-ve: hLiMTs <25x Avg Cmax ATP ([11]; ATP endpoint) | hLiMTs <25x Avg Cmax HCS ([11]; HCS endpoints) | hLiMTs <25x Avg Cmax All [11] | hLiMTs Cmax max All ([11]; all endpoints) | hLiMTs Cmax min All ([11]; all endpoints) | hLiMTs <10 uM All ([11]; all endpoints) | HepaRG <25x Avg Cmax ATP ([12]; ATP endpoint) | HepaRG <25x Avg Cmax HCS ([12]; HCS endpoints) | HepaRG <25x Avg Cmax All [12] | HepaRG Cmax max All ([12]; all endpoints) | HepaRG Cmax min All ([12]; all endpoints) | HepaRG <10 uM All ([12]; all endpoints)
No: DILI severity category (Chen et al. [2016]) ([6]; LTKB DILIrank category, ref Chen et al. 2016) | DILI severity category (Chen 2016) ([6]; human DILI classification, LTKB DILIrank, ref Chen et al. 2016) | DILI severity category ([6]; human DILI severity, ref Chen et al.)
1: Assigned DILI category [3]
